Experimental data taken from patent US5486528A, “Basic ethers and process for the preparation thereof” (Egis Gyogyszergyar Rt., priority 1993, dated 1996).

What was measured:
mice = test: Effect on the spontaneous motor activity (Borsy), sedative effect; format: in vivo, mouse; conditions: Mus musculus, po, 0.5 h; mice, orally, 30 minutes; read-out: ID50, spontaneous motor activity
Method: 2.1. Effect on the spontaneous motor activity
The test was carried out according to the method of Borsy et al. Groups consisting of 3 mice each were treated orally with different doses of the compounds to be tested. Then the test animals were placed into a 10-channel Dews system equipment. In this equipment the number of interruptions of infrared beam within 30 minutes was counted. […] Int. Pharmacodyn. 124, 1 (1960)].

[1] = tested on: Male rats (Sprague Dawley); test: Elevated plus maze test on rat, anxiolytic effect; format: in vivo, rat (Sprague Dawley); conditions: po, 1 h, p.o., pretreatment 60 minutes, read-out: MED (minimum effective dose), elevated plus maze
Method: 1.2. Elevated plus maze test on rat
The test was carried out with the aid of a wooden plus-shaped maze elevated to a height of 50 cm. Two arms--opposite to one another--were enclosed up to a height of 40 cm along their longer sides and at the end. The other two arms were without walls (open arms). The central 15×15 cm part was open. Male rats belonging to the Sprague Dawley strain and weighing 220 to 260 g were used as test animals. After pretreatment lasting 60 minutes the animals were placed into the central part of the maze. During the 5 minutes observation period the following parameters were recorded: […]
time spent on the open arms time spent on the closed arms number of open arm entries number of closed arm entries
The drug effect was expressed as percent increase of the time spent on the open arms and number of open arm entries. The minimum effective dose which caused a significant increase of the time spent on the open arms was calculated for every substance [Pelow, S., Chopin, P., File, S. E., Briley, M.: J. Neurosci. Methods 14, 149-167 (1985)].

Male Wistar rats [2] = test: Vogel test (drinking conflict test), anxiolytic effect; format: in vivo, rat (Wistar); conditions: for anxiolytic activity (in words): Vogel test, compared with Meprobamate or within the group; for minimal effective dose: ip, 0.5 h, rat, intraperitoneally, half an hour before testing, read-out: MED (minimum effective dose), Vogel test
Method: 1.1. Vogel test (drinking conflict test)
The anxiolytic effect was tested by using the method of Vogel et al. Male Wistar rats of 160 to 180 g body weight were kept free of food and drinking water for 24 and 48 hours, respectively. Test and carrier substances were administered intraperitoneally half an hour before testing. Animals within the experimental chamber were provided with drinking water through an inserted tube. After the animals' each twenty lapping for water the device emitted a 2 mA intensity electric shock through the drinking tube. During 5 minutes the shocks tolerated by the animals in order to quench their thirst were counted. The effect of treatment was expressed as the % increase of the tolerated shocks. The minimum effective dose (MED) was determined for each test compound [Volge, J. R., Beer, B., Clody, D. E.: Psychopharmacologia (Berl.) 21, 1 (1971)].

Male Wistar rats [3] = test: Conditioned avoidance response inhibition, antipsychotic effect; format: in vivo, rat (Wistar); conditions: rat, 30 mg/kg p.o.; ++ = p < 0.05
Method: Conditioned avoidance response inhibition
The antipsychotic (neuroleptic) effect was measured by the inhibition of the learned conditioned avoidance reflex. The male Wistar rats, used for the study, were of 120-150 g body weight at the commencement of learning. A shuttle box was used as experimental device; it consists of two parts, 24×24.5×23 cm each, separated by a wall with a 6×9 cm gate. In response to a sutiable warning stimulus, in order to avoid the punishing (unconditioned) stimulus, animals within the box passed through the gate from one part to the other. The warning, i.e. conditioned stimulus (CS), a white light (1 Hz) blinking for 15 seconds, was applied at the place of the actual animal existence. The unconditioned stimulus (US), in form of 0.6 mA intensity electric shock, was randomly applied to the paw during the last 5 seconds of the conditioned stimulus. The animal's movement during the CS and US from one part of the box to the other, was defined as avoidance and escape responses, respectively. Both responses ceased the actual stimulus and stopped the trial. The time elapsed until the next trial (intertrial interval, ITI) was 15 seconds. While one experiment was carried out daily, an experiment consisted of 80 trials. Learning efficiency was expressed as percentage of the successful to the total avoidances. Effect of the neuroleptic drugs was examined in animals with stabilized conditioned reflexes and with at least 75% learning efficiency. Dosing was carried out once a week, one hour before the measurement in the shuttle box. To calculate the neuroleptic effect (50% inhibiting dose, ID50) , results obtained after the treatment were compared to those obtained on the previous day (controls).

rat's parietal cell = test: 14C-aminopyrine accumulation by parietal cells; format: cell-based, rat (Wistar); conditions: stimulated rat parietal cells; read-out: ED50, inhibition of aminopyrine accumulation
Method: 4. Measurement of ^14 C-aminopyrine accumulation by parietal cells
Gastric mucosal cells were prepared from rat stomach. Wistar rats (130-160 g) were killed by decapitation, the stomachs were rapidly excised and their contents were washed out with saline. The stomachs were then everted and filled with 2.5 mg/ml of pronase containing buffer. These sacs were incubated for 60 minutes at 37° C. in carbogen gassed medium. This incubation was followed by gentle stirring at room temperature for 45 minutes by a magnetic stirrer in order to disperse the cells from the mucosa of the everted stomachs digested only from the serosal side. The viability of the cells was determined by trypan-blue exclusion test. The percentage of the parietal cells was determined on the basis of their morphological characteristics.
Acid production of the cells prepared in this way could be induced by cyclic AMP, histamine (in the presence of 3-isobutyl-1-methylxanthine) or carbachol. The acid production was assessed by measuring the accumulation of ^14 C-aminopyrine. The undissociated weak base can penetrate into the acid-containing compartments of the cells. […] Thus, the distribution of ^14 C-aminopyrine between the extracellular and intracellular spaces is an indirect quantitative index for the cellular acid production [W. Schepp, J. Schmidtler, C. […]

[4] = tested on: erosion of the stomach wall; test: Cytoprotective effect, ethanol erosion (Robert); format: in vivo; conditions: rat
Method: 3. The cytoprotective effect was determined according to the method of Robert [Robert, A.: Cytoprotection by prostaglandins. […] Rats weighing 200 to 250 g were used as test animals. 1 cm^3 of abs. ethanol was introduced to the stomach to produce an erosion of the stomach wall. The length and frequency of the lesions (erosion index and frequency) were measured and the percentage inhibition of lesion formation compared with vehicle-treated animals was calculated.

[5] = Acute toxicity on mice (Litchfield and Wilcoxon); conditions: mouse, in vivo, ip
gastric-acid secretion = test: Gastric-acid-secretion test (Shay); format: in vivo, rat; conditions: po; rat, p.o., 4 hours after ligature; read-out: Acid-secretion inhibition, ED50
Method: 2. […] The liberated gastric-acid content was determined by titration 4 hours after the ligature of the duodenum.

H^+ /K^+ -ATP-ase = molecular target: T1, H^+ /K^+ -ATP-ase (Sus scrofa, UniProt P19156); test: H+/K+-ATP-ase inhibition on partially purified pig's microsome specimen; format: biochemical
T1 construct: on partially purified pig's microsome specimen; from tissue; host or cells: pig stomach, partially purified microsomes
T1 sequence (P19156 2-1034 limits assumed): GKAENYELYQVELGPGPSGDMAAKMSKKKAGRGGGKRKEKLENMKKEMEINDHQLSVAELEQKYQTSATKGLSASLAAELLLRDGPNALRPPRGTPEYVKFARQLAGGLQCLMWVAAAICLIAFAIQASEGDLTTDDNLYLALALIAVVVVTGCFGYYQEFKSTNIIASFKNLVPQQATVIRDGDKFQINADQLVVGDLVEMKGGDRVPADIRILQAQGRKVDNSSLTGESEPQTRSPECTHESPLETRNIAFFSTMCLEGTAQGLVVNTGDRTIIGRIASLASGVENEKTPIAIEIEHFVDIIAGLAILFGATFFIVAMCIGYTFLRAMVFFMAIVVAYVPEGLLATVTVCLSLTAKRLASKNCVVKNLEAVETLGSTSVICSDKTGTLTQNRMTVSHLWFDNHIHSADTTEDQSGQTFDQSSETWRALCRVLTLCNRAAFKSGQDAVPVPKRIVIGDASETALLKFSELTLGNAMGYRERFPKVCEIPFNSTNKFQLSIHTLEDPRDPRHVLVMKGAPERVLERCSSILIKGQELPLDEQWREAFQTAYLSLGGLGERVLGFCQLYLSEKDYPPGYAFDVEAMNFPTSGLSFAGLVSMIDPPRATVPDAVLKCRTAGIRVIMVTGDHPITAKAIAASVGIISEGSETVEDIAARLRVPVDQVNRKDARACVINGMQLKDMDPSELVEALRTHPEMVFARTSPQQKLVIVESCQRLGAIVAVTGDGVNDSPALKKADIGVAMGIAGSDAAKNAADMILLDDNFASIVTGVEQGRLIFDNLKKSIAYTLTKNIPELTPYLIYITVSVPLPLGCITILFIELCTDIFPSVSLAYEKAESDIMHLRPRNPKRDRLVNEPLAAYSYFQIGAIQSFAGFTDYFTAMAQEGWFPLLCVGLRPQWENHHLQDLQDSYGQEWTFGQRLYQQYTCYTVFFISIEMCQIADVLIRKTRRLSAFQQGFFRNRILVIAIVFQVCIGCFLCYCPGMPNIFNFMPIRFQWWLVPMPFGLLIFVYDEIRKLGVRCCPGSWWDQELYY
T1 sequence (P18434 whole entry partner): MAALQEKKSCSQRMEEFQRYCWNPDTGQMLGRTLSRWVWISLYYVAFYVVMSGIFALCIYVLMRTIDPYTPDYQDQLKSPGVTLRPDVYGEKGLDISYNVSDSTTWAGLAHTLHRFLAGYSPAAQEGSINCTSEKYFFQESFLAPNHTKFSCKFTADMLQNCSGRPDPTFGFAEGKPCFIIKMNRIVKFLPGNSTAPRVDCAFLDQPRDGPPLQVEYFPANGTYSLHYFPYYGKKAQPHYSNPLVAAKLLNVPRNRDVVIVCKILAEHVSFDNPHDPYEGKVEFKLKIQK
Method: 1. H^+ /K^+ -ATP-ase inhibition on pig's stomach
The test was carried out according to the method of Rabon and Sachs [E. C. Rabon et al.: Preparation of gastric H^+ K^+ -ATP-ase, Methods in Enzymology, 157, 649-651 (1988)]. The activity of the prepared enzyme was measured both in the presence as in the absence of K^+ ions. The difference in the libaration of phosphorus representing the activity of the enzyme was measured.

[6] = Acute toxicity on mice (Litchfield and Wilcoxon); conditions: mouse, in vivo, po
Method: The test was carried out according to the method of Litchfield and Wilcoxon [Litchfield, J. T. and Wilcoxon, F. W.: J. Pharmacol. Exp. Ther., 96, 99 (1949)] by using white mice belonging to the CFLP strain and weighing 10 to 22 g, 10 animals per dose. The test compounds were administered orally in a volume of 20 cm^3 /kg.

SMILES | ED50 (mice) [mg/kg] | minimal effective dose [1] [mg/kg] | anxiolytic activity (in words) (Male Wistar rats [2]) | minimal effective dose (Male Wistar rats [2]) [mg/kg] | Inhibition of the conditioned reflex (%) (Male Wistar rats [3]) | IC50 (rat's parietal cell) [µM] | ED50 ([4]; po, 1 cm^3 abs. ethanol) [mg/kg] | Ratio of acid-secretion inhibition and erosion inhibition ([4]; ratio of ED50 values, p.o.) | LD50 at 336 h [5] [mg/kg] | ED50 (gastric-acid secretion) [mg/kg] | IC50 (H^+ /K^+ -ATP-ase) [µM] | LD50 at 336 h [6] [mg/kg]
CC(C)CC(/C=C/c1ccccc1)=N\OCCN1CCCCC1 [Example 10, 1-Phenyl-5-methyl-3-(E)-[2-(N-piperidinyl)-ethoxyimino]-1-(E)-hexene] | > 100 | 10 | the most active members in the structural group | 0.1 | 13 |  |  |  |  |  |  | 
CCCC(/C=C/c1ccccc1)=N\OCCCN(C)C [Example 21, 1-Phenyl-3-(E)-[3-(dimethylamino)-propoxyimino]-1-(E)-hexene] | > 100 | 1 | the most active members in the structural group | 0.03 | 7 |  |  |  |  |  |  | 
CC(C)CCC(/C=C/c1ccc(Cl)cc1)=N\OCCCN1CCCCC1 [Example 9, 1-(4-Chlorophenyl)-6-methyl-3-(E)-[3-(N-piperidinyl)-propoxyimino]-1-(E)-heptene] | > 100 |  |  | > 30 | 16 | 0.05 | 5.9 | 18.1 | 160 | 107 | 12 | > 1000
CCCC(C)(COC(N)=O)COC(N)=O [Meprobamate, reference compound] |  | > 10 |  | 25 |  |  |  |  |  |  |  | 
